This is an account of results in patent publication US10287267B2, “Isoquinolin-3-yl carboxamides and preparation and use thereof” (Samumed, LLC, priority 2016, dated 2019).

Each structure is given as a SMILES string. Read-outs that look alike come from different tables or passages of the source.

In assay [1] the test system is Wnt pathway (Sp5-Luc reporter, TCF/LEF binding sites) in SW480 colon carcinoma cells. The experiment in a line: Screening assay for Wnt activity: Sp5-Luc reporter gene assay.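 For all read-outs here: firefly luciferase luminescence read in stably transduced SW480 cells carrying the Sp5 promoter reporter with eight TCF/LEF sites, compounds given in 0.1% DMSO final.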 The class given is cell-based, human. To be noted: Homo sapiens; for EC50: Sp5-Luc reporter, SW480 cells, 36 to 48 hours.
Method: The screening assay for Wnt activity is described as follows.
Following incubation, 15 μl of BriteLite Plus luminescence reagent (Perkin Elmer) was added to each well of the 384-well assay plates. The plates were placed on an orbital shaker for 2 min and then luminescence was quantified using the Envision (Perkin Elmer) plate reader.
For assay [2], the target named is recombinant DYRK1A kinase (Homo sapiens (Human), UniProt Q13627). The experiment in a line: DYRK1A kinase assay (Ser/Thr 18 peptide Z-lyte FRET).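 Note: Read-out is the coumarin to fluorescein emission ratio, referenced to unphosphorylated (0%) and phosphorylated (100%) Ser/Thr 18 peptide controls, values from dose-response curves by non-linear regression.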 The class given is biochemical. To be noted: 30 μM ATP, 1 h room temperature.
The next assay concerns the target recombinant GSK3β kinase (Homo sapiens (Human), UniProt P49841). Kind of assay: GSK3β kinase assay (Ser/Thr 09 peptide Z-lyte FRET).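 Note: kinase activity read as coumarin to fluorescein emission ratio, 11-point threefold dilutions from 10 µM to 0.0003 µM in duplicate, unphosphorylated and phosphorylated peptide as 0% and 100% controls.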 The class given is biochemical. To be noted: 46 μM ATP, 1 h room temperature.
For assay [3], the system named is Tau phosphorylation at Ser396 (pSer396). The experiment in a line: Tau phosphorylation assay (pSer396 ELISA / western blot) in SH-SY5Y cells.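 Note: EC50 for reduction of Tau pSer396 in lysed cells, measured by colorimetric ELISA or chemiluminescent western blot, both using the same pSer396 antibody.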 The class given is cell-based, human. To be noted: Homo sapiens, read-out: pSer396 Tau EC50. On the technique in general: In an ELISA, binding on a coated surface is turned into a signal by an enzyme label.
Method: Two days before treatment, cells were seeded onto 96 well plates at 5×10^4 cells/well.
Wells were visually checked for cell death or change in morphology and supernatants were tested for cytotoxicity by measurement of lactate dehydrogenase release (LDH, CytoToxOne kit, Promega) if necessary.
Cells were lysed with RIPA buffer complemented with phosphatase and protease inhibitors then lysates were spun down at 12,000 g for 10 min to remove any cellular debris. Lysates are then either directly tested for pSer396 by ELISA (Life Technology, Kit KHB7031) or loaded on NuPage Bis-Tris gels for western blot analysis. Colorimetric detection of ELISA signal is performed by Cytation3 plate reader (Biotek) and the chemiluminescence signal for HRP-linked antibodies used in western blotting is detected using a Carestream Image Station. The same pSer396 antibody is used for detection of pTau in both assays.
The subject of assay [4] is SW480 colon carcinoma cells. Kind of assay: Cell viability assay (CellTiter-Glo). The class given is cell-based, human. The conditions noted are these: Homo sapiens; for EC50: 96 h, SW480 cells, CellTiter-Glo, four days incubation; for inhibition at 10 µM: SW480, read-out: percent inhibition at 10 μM. In general terms: In ATP-based viability assays light output follows the ATP content of the culture.

For assay [5], the system named is α-smooth muscle actin (αSMA) positive LL29 cells. Kind of assay: Inhibition of fibrotic process: αSMA in TGF-β1 treated primary human fibroblasts from IPF patients.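 For all read-outs here: controls were TGF-β1 stimulated wells with DMSO vehicle (positive) and cells given DMSO alone (negative), cultured in F12 medium with 1% fetal bovine serum.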 The conditions noted are these: Homo sapiens, Fibroblast; for EC50: 96 h, Table 8, LL29 fibroblasts from IPF patients, TGF-β1 20 ng/mL, 4 days, dose-response 10 μM to 0.94 nM; for inhibition at 10 µM: read-out: percent value in parentheses beside EC50 >10 μM. The class given is cell-based.

A further assay relates to IL-6. Kind of assay: IL-6 inhibition in LPS-stimulated human peripheral blood mononuclear cells (HTRF).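 For all read-outs here: IL-6 detected by HTRF with an XL665- and Cryptate-labelled anti-IL-6 antibody pair, samples run in duplicate, EC50 obtained from a four-parameter Levenberg-Marquardt curve fit.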 It counts as cell-based. The conditions noted are these: Homo sapiens, PBMC; for inhibition at 10 µM: read-out: percent value in parentheses beside EC50 >10 μM; for EC50: Table 9, huPBMCs, LPS 50 ng/mL, 22 hours, dose-response starting from 10 μM. A general note: Time-resolved FRET reads energy transfer from a long-lived donor to a nearby acceptor.

[6] abbreviates: SH-SY5Y cells, overnight (16-18 h) exposure.

As usually defined, the EC50 is the concentration needed to bring the measured effect to its halfway point.

recombinant GSK3β kinase, sequence (P49841 whole entry): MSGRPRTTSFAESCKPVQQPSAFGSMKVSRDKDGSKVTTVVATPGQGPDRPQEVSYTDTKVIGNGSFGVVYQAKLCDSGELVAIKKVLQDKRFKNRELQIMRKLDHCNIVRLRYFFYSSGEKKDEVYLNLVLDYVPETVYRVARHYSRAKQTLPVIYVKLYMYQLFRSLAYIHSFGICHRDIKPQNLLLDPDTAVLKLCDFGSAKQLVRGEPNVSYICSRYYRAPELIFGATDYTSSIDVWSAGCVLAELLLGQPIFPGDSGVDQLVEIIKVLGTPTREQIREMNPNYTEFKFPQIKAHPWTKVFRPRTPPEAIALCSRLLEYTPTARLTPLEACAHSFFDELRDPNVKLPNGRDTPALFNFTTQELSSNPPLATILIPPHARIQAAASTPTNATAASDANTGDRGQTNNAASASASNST
Method for IL-6: After 22 hour incubation, a mixture of anti-IL6 XL665 and anti-IL-6 Cryptate diluted in reconstitution buffer (Catalog #62IL6PEC, Cisbio Inc., Bedford, Mass.) was added to each well. […] All samples were processed in duplicate. […] EC50 was determined using software generated by Dotmatics Limited (Windhill Bishops Stortford Herts, UK) using the Levenberg-Marquardt 4 parameter fitting procedure with finite different gradients.

With `Cc1ncc(-c2ccc3cnc(NC(=O)CN4CCOCC4)cc3c2)s1` [Compound 994, N-(6-(2-Methylthiazol-5-yl)isoquinolin-3-yl)-2-morpholinoacetamide], the EC50 is 7.9 µM in assay [1]; 0.0129 µM in assay [2]; 0.11 µM on recombinant GSK3β kinase; 1.9 µM in assay [3] (setting [6]); > 10 µM in assay [4]; 0.567 µM in assay [5]. In the assay with IL-6, the EC50 is > 10 µM. The inhibition at 10 µM was 36.8% in assay [4] and 31.8% with IL-6.
As to `Cc1ncc(-c2ccc3cnc(NC(=O)CN4CCN(C)CC4)cc3c2)s1` [Compound 995, 2-(4-Methylpiperazin-1-yl)-N-(6-(2-methylthiazol-5-yl)isoquinolin-3-yl) acetamide], the inhibition at 10 µM in assay [1] (SW480, read-out: percent inhibition at 10 μM) worked out at 43.8%; in assay [4], 47.6%. For the same compound, the EC50 in assay [1] is > 10 µM; in assay [2] it was 0.0133 µM; at recombinant GSK3β kinase it was 0.177 µM; in assay [3] (setting [6]), 2.4 µM; in assay [4] it was > 10 µM; in assay [5], 1.25 µM. The same compound came in with an EC50 in the assay on IL-6 of 8.93 µM.
`Cc1ncc(-c2ccc3cnc(NC(=O)CN4C[C@H]5C[C@@H]4CO5)cc3c2)s1` [Compound 996, 2-((1R,4R)-2-Oxa-5-azabicyclo[2.2.1]heptan-5-yl)-N-(6-(2-methylthiazol-5-yl)isoquinolin-3-yl)acetamide]: the EC50 in assay [1] was 4.39 µM; in assay [2], 0.0134 µM; at recombinant GSK3β kinase, 0.141 µM; in assay [3] (setting [6]), 3.1 µM; in assay [4] it was > 10 µM; in assay [5], 1.2 µM. In addition, in the assay with IL-6, the EC50 is > 10 µM. Also, the inhibition at 10 µM came to 32.2% in assay [4] and 10.6% in the assay on IL-6.
In the case of `O=C(Nc1cc2cc(-c3cnn4c3CNCC4)ccc2cn1)C1CCN(CC2(C(F)(F)F)CC2)CC1` [Compound 997, N-(6-(4,5,6,7-Tetrahydropyrazolo[1,5-a]pyrazin-3-yl)isoquinolin-3-yl)-1-((1-(trifluoromethyl)cyclopropyl)methyl)piperidine-4-carboxamide], the EC50 in assay [1] is 3.89 µM; in assay [2], 0.186 µM; on recombinant GSK3β kinase, 0.033 µM; in assay [3] (setting [6]) it was 1.3 µM; in assay [4], 5.06 µM; in assay [5], 0.567 µM. In addition, in the assay on IL-6, the EC50 is > 10 µM. In addition, in the assay on IL-6, the inhibition at 10 µM was 28.6%.
For the compound `O=C(Nc1cc2cc(-c3cnn4c3CN(CCF)CC4)ccc2cn1)C1CCN(CC2(C(F)(F)F)CC2)CC1` [Compound 998, N-(6-(5-(2-Fluoroethyl)-4,5,6,7-tetrahydropyrazolo[1,5-a]pyrazin-3-yl)isoquinolin-3-yl)-1-((1-(trifluoromethyl)cyclopropyl)methyl)piperidine-4-carboxamide], the EC50 was determined as 2.25 µM in assay [1]; 0.0062 µM in assay [2]; 0.102 µM on recombinant GSK3β kinase; 0.638 µM in assay [3] (setting [6]); 4.75 µM in assay [4]; 0.26 µM in assay [5]. This compound gave an EC50 in the assay with IL-6 of 7.08 µM.
As to `O=C(CN1CCCC1)Nc1cc2cc(-c3cnn4c3CN(CCF)CC4)ccc2cn1` [Compound 999, N-(6-(5-(2-Fluoroethyl)-4,5,6,7-tetrahydropyrazolo[1,5-a]pyrazin-3-yl)isoquinolin-3-yl)-2-(pyrrolidin-1-yl)acetamide], the EC50 in assay [1] is 3.1 µM; in assay [2], 0.0209 µM; on recombinant GSK3β kinase it was 0.086 µM; in assay [3] (setting [6]), 0.659 µM; in assay [4], 7.51 µM; in assay [5], 0.779 µM. In the assay on IL-6, the EC50 was > 10 µM. Besides, in the assay with IL-6, the inhibition at 10 µM was 30.3%.
Consider `O=C(CN1C2CCC1CC2)Nc1cc2cc(-c3cnn4c3CN(CCF)CC4)ccc2cn1` [Compound 1000, 2-(7-Azabicyclo[2.2.1]heptan-7-yl)-N-(6-(5-(2-fluoroethyl)-4,5,6,7-tetrahydropyrazolo[1,5-a]pyrazin-3-yl)isoquinolin-3-yl)acetamide], for which the EC50 came to 4.32 µM in assay [1]; 0.0111 µM in assay [2]; 0.27 µM at recombinant GSK3β kinase; 1.5 µM in assay [3] (SH-SY5Y); 7.29 µM in assay [4]; 2.96 µM in assay [5]. The midpoint of the response in the assay with IL-6, the EC50, lay at 8.72 µM.
As for `CO[C@H]1CC[C@@H](C(=O)Nc2cc3cc(-c4nnc(C)s4)ccc3cn2)CC1` [Compound 1001, cis-4-Methoxy-N-(6-(5-methyl-1,3,4-thiadiazol-2-yl)isoquinolin-3-yl) cyclohexane-1-carboxamide], the EC50 in assay [1] is 0.593 µM; in assay [2] it was 0.0073 µM; on recombinant GSK3β kinase it was 0.009 µM; in assay [3] (setting [6]) it was 3.3 µM; in assay [4] it was 0.677 µM; in assay [5], 0.065 µM. The EC50 with IL-6 was > 10 µM.
On to `CC(C)CN1CCC[C@@H](C(=O)Nc2cc3cc(-c4cnn5c4CN(CCF)CC5)ccc3cn2)C1` [Compound 1002, (R)—N-(6-(5-(2-Fluoroethyl)-4,5,6,7-tetrahydropyrazolo[1,5-a]pyrazin-3-yl)isoquinolin-3-yl)-1-isobutylpiperidine-3-carboxamide], for which the EC50 was 1.92 µM in assay [1]; 0.0285 µM in assay [2]; 0.425 µM at recombinant GSK3β kinase; 1.9 µM in assay [3] (setting [6]); > 10 µM in assay [4]; > 10 µM in assay [5]. In the assay with IL-6, the EC50 is > 10 µM. The inhibition at 10 µM amounted to 37.6% in assay [4], 27.5% in assay [5] and 5.9% in the assay with IL-6.
On to `Cn1cc(-c2ccc3cnc(NC(=O)C4CCN(Cc5ncccn5)CC4)cc3c2)cn1` [Compound 1003, N-(6-(1-Methyl-1H-pyrazol-4-yl)isoquinolin-3-yl)-1-(pyrimidin-2-ylmethyl)piperidine-4-carboxamide], for which the EC50 in assay [1] turned out to be 1.31 µM; in assay [2], 0.0021 µM; at recombinant GSK3β kinase it was 0.043 µM; in assay [3] (setting [6]) it was 0.732 µM; in assay [4] it was 0.804 µM; in assay [5], 0.049 µM. Also, the EC50 in the assay on IL-6 is 1.15 µM.
Regarding `Cn1cc(-c2ccc3cnc(NC(=O)C4CCN(Cc5cnccn5)CC4)cc3c2)cn1` [Compound 1004, N-(6-(1-Methyl-1H-pyrazol-4-yl)isoquinolin-3-yl)-1-(pyrazin-2-ylmethyl)piperidine-4-carboxamide], the EC50 is 0.618 µM in assay [1]; 0.002 µM in assay [2]; 0.037 µM at recombinant GSK3β kinase; 0.667 µM in assay [3] (setting [6]); 0.678 µM in assay [4]; 5.04 µM in assay [5]. In the assay with IL-6, the EC50 was 1.18 µM.
As for `Cc1nc(CN2CCC(C(=O)Nc3cc4cc(-c5cnn(C)c5)ccc4cn3)CC2)no1` [Compound 1005, 1-((5-Methyl-1,2,4-oxadiazol-3-yl)methyl)-N-(6-(1-methyl-1H-pyrazol-4-yl)isoquinolin-3-yl)piperidine-4-carboxamide], the EC50 is 1.4 µM in assay [1]; 0.0015 µM in assay [2]; 0.032 µM at recombinant GSK3β kinase; 0.898 µM in assay [3] (setting [6]); 1.13 µM in assay [4]; 0.072 µM in assay [5]. The EC50 with IL-6 turned out to be 2.89 µM.
Take `CC(C)OCC(=O)Nc1cc2cc(-c3cncn3C)ccc2cn1` [Compound 1008, 2-Isopropoxy-N-(6-(1-methyl-1H-imidazol-5-yl)isoquinolin-3-yl)acetamide]: the EC50 in assay [1] was 3.35 µM; in assay [2], 0.0075 µM; on recombinant GSK3β kinase, 0.091 µM; in assay [3] (setting [6]) it was 0.643 µM; in assay [4] it was > 10 µM; in assay [5], 0.318 µM. In the assay on IL-6, this compound showed an EC50 of 7.59 µM. Moreover, the inhibition at 10 µM in assay [4] was 37.2%.
Regarding `CC(C)OCCC(=O)Nc1cc2cc(-c3cncn3C)ccc2cn1` [Compound 1009, 3-Isopropoxy-N-(6-(1-methyl-1H-imidazol-5-yl)isoquinolin-3-yl) propanamide], the EC50 in assay [1] is 1.11 µM; in assay [2], 0.0062 µM; on recombinant GSK3β kinase, 0.015 µM; in assay [3] (setting [6]), 0.068 µM; in assay [4], 2.35 µM; in assay [5], > 10 µM. The same compound returned an EC50 with IL-6 of 1.84 µM. In addition, in assay [5], the inhibition at 10 µM was 22.4%.
Regarding `Cn1cc(-c2ccc3cnc(NC(=O)C4CCN(CC(=O)OC(C)(C)C)CC4)cc3c2)cn1` [Compound 1010, tert-Butyl 2-(4-((6-(1-methyl-1H-pyrazol-4-yl)isoquinolin-3-yl)carbamoyl)piperidin-1-yl)acetate], the EC50 in assay [1] worked out at 2.02 µM; in assay [2] it was 0.0026 µM; at recombinant GSK3β kinase, 0.053 µM; in assay [3] (setting [6]), 0.622 µM; in assay [4], 3.97 µM; in assay [5] it was 0.103 µM. This compound also registered an EC50 with IL-6 of 1.17 µM.
